# Data taken from US10344019B2 (priority 2010, dated 2019).
# Read-outs that look alike come from different tables or passages of the source.
# Legend:
# Format in all cases: cell-based
# [1] = system: HCV 1a RLuc cells (dicistronic genotype 1a H77 replicon, RLuc reporter); assay: microbe, parasite or virus in culture; details: Hepatitis C virus, read-out: 1a
# Summary of the method: (§1)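 Renilla luciferase HCV replicon cells: dicistronic 1b Con1, 1a H77 or 2a JFH-1 replicons, or a JFH-1 chimera carrying J6 NS5A (M31 present). Compound in DMSO serial dilutions, 72 h incubation, then lysis and luciferase read. EC50 by non-linear regression.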
# [2] = system: HCV 1b RLuc cells (dicistronic genotype 1b Con1 replicon, RLuc reporter); assay: microbe, parasite or virus in culture; details: Hepatitis C virus, read-out: 1b (nM)
# Summary of the method: as §1
# [3] = system: HCV 2a JFH-1 Rluc cells (dicistronic genotype 2a JFH-1 replicon, RLuc reporter); assay: microbe, parasite or virus in culture; details: Hepatitis C virus, read-out: 2a JFH
# Summary of the method: as §1
# [4] = system: HCV 2b Rluc cells (NS5A chimeric genotype 2a JFH-1 replicon with genotype 2b MD2b-1 NS5A gene, M31 present); assay: microbe, parasite or virus in culture; details: Hepatitis C virus, read-out: 2b
# Summary of the method: (§2)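 Replicon cells stably carrying the listed RLuc-encoding dicistronic replicons were seeded and treated with DMSO serial dilutions of compound (10 mM stocks) diluted into culture medium. After 72 h, cells were lysed and Renilla luciferase activity measured. EC50 was derived by non-linear regression.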
# [5] = system: HCV 3a RLuc cells (NS5A chimeric genotype 1b Con1 replicon with consensus genotype 3a NS5A gene); assay: microbe, parasite or virus in culture; details: Hepatitis C virus
# Summary of the method: as §2
# [6] = system: HCV 4a Rluc cells (NS5A chimeric genotype 1b Con1 replicon with genotype 4a NS5A gene); assay: microbe, parasite or virus in culture; details: Hepatitis C virus, read-out: 4a
# Summary of the method: as §2
# [7] = system: HCV 2a Rluc cells (NS5A chimeric genotype 2a JFH-1 replicon with genotype 2a J6 strain NS5A gene, M31 present); assay: HCV replicon reporter assay, genotype 2a J6 (M31 present); details: Hepatitis C virus, read-out: 2a J6
# Summary of the method: as §1
# [8] = genotype 2a JFH-1 RLuc replicon
# [9] = read-out: 3a, genotype 3a NS5A chimeric replicon
# [10] = read-out: 3a, genotype 3a replicon
# [11] = 72 h, Table 1, genotype 1a H77 replicon, 72 hours
# [12] = 72 h, Table 1, genotype 2a JFH-1 replicon, 72 hours
# [13] = read-out: 3a, Table 1, genotype 3a NS5A chimeric replicon
Structure (SMILES),EC50 ([1]; genotype 1a H77 RLuc replicon) [nM],EC50 [2] [nM],"EC50 [3, 8] [nM]",EC50 [4] [nM],"EC50 [5, 9] [nM]",EC50 [6] [nM],EC50 [7] [nM],EC50 ([1]; genotype 1a replicon) [nM],EC50 ([3]; genotype 2a JFH-1 replicon) [nM],"EC50 [5, 10] [nM]","EC50 [1, 11] [nM]",EC50 ([2]; 72 h) [nM],"EC50 [3, 12] [nM]","EC50 [5, 13] [nM]"
O=C(N[C@@H](C(=O)N1CCC[C@H]1c1ncc(-c2cc3c4c(c2)OCc2cc(-c5cnc([C@@H]6CCCN6C(=O)[C@H](NC(=O)c6cncnc6)c6ccccc6)[nH]5)cc(c2-4)OC3)[nH]1)c1ccccc1)c1cncnc1 [Example 492],1 to 44,0.898,0.001 to 0.999,1 to 44,0.001 to 0.99,0.001 to 0.99,> 44,–,–,–,–,–,–,–
CC(C)(C)C(=O)N[C@@H](C(=O)N1CCC[C@H]1c1ncc(-c2cc3c4c(c2)OCc2cc(-c5cnc([C@@H]6CCCN6C(=O)[C@H](NC(=O)C(C)(C)C)c6ccccc6)[nH]5)cc(c2-4)OC3)[nH]1)c1ccccc1 [Example 466],–,0.042,–,1 to 44,–,0.001 to 0.99,1 to 44,0.001 to 0.999,0.001 to 0.999,0.001 to 0.99,–,–,–,–
COC(=O)N[C@H](C(=O)N1CCC[C@H]1c1ncc(-c2cc3c4c(c2)OCc2cc(-c5cnc([C@@H]6CCCN6C(=O)[C@@H](NC(=O)OC)C(C)C)[nH]5)cc(c2-4)OC3)[nH]1)C(C)C [Example 9],–,–,–,1 to 44,–,0.001 to 0.99,> 44,–,–,–,0.001 to 0.999,0.022,0.001 to 0.999,0.001 to 0.99
COC(=O)N[C@H](C(=O)N1CCC[C@H]1c1ncc(-c2ccc3c(c2)COc2c-3ccc3c2ccc2nc([C@@H]4CCCN4C(=O)[C@H](NC(=O)OC)c4ccccc4)[nH]c23)[nH]1)C(C)C [Example 413],–,0.017,–,1 to 44,–,0.001 to 0.99,1 to 44,0.001 to 0.999,0.001 to 0.999,0.001 to 0.99,–,–,–,–
COC(=O)N[C@H](C(=O)N1CCC[C@H]1c1nc2ccc3c4c(ccc3c2[nH]1)-c1ccc(-c2cnc([C@@H]3CCCN3C(=O)[C@H](NC(=O)OC)c3ccccc3)[nH]2)cc1CO4)C(C)C [Example 412],–,0.018,–,0.001 to 0.999,–,0.001 to 0.99,1 to 44,0.001 to 0.999,0.001 to 0.999,0.001 to 0.99,–,–,–,–
COC[C@H]1C[C@@H](c2nc3ccc4cc(-c5ccc6c(ccc7nc([C@@H]8[C@@H]9CC[C@@H](C9)N8C(=O)[C@H](NC(=O)OC)c8ccccc8)[nH]c76)c5)ccc4c3[nH]2)N(C(=O)[C@@H](NC(=O)OC)C(C)C)C1 [Example 452],–,0.047,–,1 to 44,–,0.001 to 0.99,0.001 to 0.999,0.001 to 0.999,0.001 to 0.999,0.001 to 0.99,–,–,–,–
COCCC(=O)N[C@@H](C(=O)N1CCC[C@H]1c1ncc(-c2cc3c4c(c2)OCc2cc(-c5cnc([C@@H]6CCCN6C(=O)[C@H](NC(=O)CCOC)c6ccccc6)[nH]5)cc(c2-4)OC3)[nH]1)c1ccccc1 [Example 480],–,0.684,–,0.001 to 0.999,–,0.001 to 0.99,1 to 44,0.001 to 0.999,0.001 to 0.999,0.001 to 0.99,–,–,–,–
CN(C)C(=O)N[C@@H](C(=O)N1CCC[C@H]1c1ncc(-c2cc3c4c(c2)OCc2cc(-c5cnc([C@@H]6CCCN6C(=O)[C@H](NC(=O)N(C)C)c6ccccc6)[nH]5)cc(c2-4)OC3)[nH]1)c1ccccc1 [Example 431],–,0.436,–,0.001 to 0.999,–,0.001 to 0.99,0.001 to 0.999,0.001 to 0.999,0.001 to 0.999,0.001 to 0.99,–,–,–,–
COC(=O)N[C@H](C(=O)N1[C@@H](C)CC[C@H]1c1ncc(-c2cc3c4c(c2)OCc2cc(-c5cnc([C@@H]6CC[C@H](C)N6C(=O)[C@@H](NC(=O)OC)C(C)C)[nH]5)cc(c2-4)OC3)[nH]1)C(C)C [Example 460],–,0.018,–,0.001 to 0.999,–,0.001 to 0.99,1 to 44,0.001 to 0.999,0.001 to 0.999,0.001 to 0.99,–,–,–,–
COC(=O)N[C@H](C(=O)N[C@@H](C(=O)N1CCC[C@H]1c1ncc(-c2cc3c4c(c2)OCc2cc(-c5cnc([C@@H]6CCCN6C(=O)[C@H](NC(=O)[C@@H](NC(=O)OC)C(C)C)c6ccccc6)[nH]5)cc(c2-4)OC3)[nH]1)c1ccccc1)C(C)C [Example 483],–,0.814,–,0.001 to 0.999,–,0.001 to 0.99,> 44,1 to 44,0.001 to 0.999,0.001 to 0.99,–,–,–,–
COC(=O)NC(C(=O)N1CCC[C@H]1c1ncc(-c2cc3c4c(c2)OCc2cc(-c5[nH]c([C@@H]6CCCN6C(=O)C(NC(=O)OC)c6cccnc6)nc5Cl)cc(c2-4)OC3)[nH]1)c1cccnc1 (stereo partly drawn) [Example 420],–,4.66,–,1 to 44,–,1 to 4.99,1 to 44,1 to 44,0.001 to 0.999,0.001 to 0.99,–,–,–,–
COC(=O)N[C@H](C(=O)N1[C@@H]2CC[C@@H](C2)[C@H]1c1nc2ccc3cc(-c4ccc5c(ccc6nc([C@@H]7CCCN7C(=O)[C@H](NC(=O)C(C)(C)O)c7ccccc7)[nH]c65)c4)ccc3c2[nH]1)C(C)C [Example 357],–,0.044,–,0.001 to 0.999,–,0.001 to 0.99,0.001 to 0.999,0.001 to 0.999,0.001 to 0.999,0.001 to 0.99,–,–,–,–
COC(=O)N[C@H](C(=O)N1CCC[C@H]1c1nc2ccc3cc(-c4ccc5c(ccc6nc([C@@H]7C[C@H](COC(F)F)CN7C(=O)[C@@H](NC(=O)OC)C(C)C)[nH]c65)c4)ccc3c2[nH]1)C(C)C [Example 514],0.001 to 0.999,0.01,0.001 to 0.999,0.001 to 0.999,0.001 to 0.99,0.001 to 0.99,0.001 to 0.999,–,–,–,–,–,–,–
CC(C)OC(=O)N[C@@H](C(=O)N1CCC[C@H]1c1ncc(-c2cc3c4c(c2)OCc2cc(-c5cnc([C@@H]6CCCN6C(=O)[C@H](NC(=O)OC(C)C)c6ccccc6)[nH]5)cc(c2-4)OC3)[nH]1)c1ccccc1 [Example 488],0.001 to 0.999,0.03,0.001 to 0.999,0.001 to 0.999,0.001 to 0.99,0.001 to 0.99,1 to 44,–,–,–,–,–,–,–
COC(=O)N[C@H](C(=O)N1CCC[C@H]1c1nc2ccc3cc(-c4ccc5c(ccc6nc([C@@H]7[C@@H]8CC[C@@H](C8)N7C(=O)[C@H](NC(=O)OC)c7ccccc7)[nH]c65)c4)ccc3c2[nH]1)C(C)C [Example 429],–,0.033,–,1 to 44,–,0.001 to 0.99,1 to 44,0.001 to 0.999,0.001 to 0.999,0.001 to 0.99,–,–,–,–
COC(=O)N[C@H](C(=O)N1CC2(C[C@H]1c1nc3ccc4cc(-c5ccc(-c6cnc([C@@H]7CCCN7C(=O)[C@H](NC(=O)OC)c7ccccc7)[nH]6)cc5)ccc4c3[nH]1)OCCO2)C(C)C [Example 411],–,0.034,–,1 to 44,–,0.001 to 0.99,1 to 44,0.001 to 0.999,0.001 to 0.999,0.001 to 0.99,–,–,–,–
COC(=O)N[C@H](C(=O)N1CCC[C@H]1c1nc2ccc3cc(-c4ccc5c(ccc6nc([C@@H]7C[C@H](C#N)CN7C(=O)[C@@H](NC(=O)OC)C(C)C)[nH]c65)c4)ccc3c2[nH]1)C(C)C [Example 416],–,0.043,–,1 to 44,–,0.001 to 0.99,0.001 to 0.999,0.001 to 0.999,0.001 to 0.999,0.001 to 0.99,–,–,–,–
COC(=O)N[C@H](C(=O)N1CCC[C@H]1c1ncc(-c2cc3c4c(c2)C(=O)c2cc(-c5cnc([C@@H]6CCCN6C(=O)[C@@H](NC(=O)OC)C(C)C)[nH]5)cc(c2-4)OC3)[nH]1)C(C)C [Example 24],–,–,–,> 44,–,0.001 to 0.99,> 44,–,–,–,0.001 to 0.999,0.013,0.001 to 0.999,0.001 to 0.99
